The source of these data is US7576222B2, “Alkynyl-containing tryptophan derivative inhibitors of TACE/matrix metalloproteinase” (priority 2004, dated 2009).

In the first experiment the target is T1, catalytic domain of the recombinant TACE protein (Homo sapiens, UniProt P78536).
T1 construct: The catalytic domain of the recombinant TACE protein was expressed and purified; made in house
T1 sequence (P78536 223-474 limits assumed): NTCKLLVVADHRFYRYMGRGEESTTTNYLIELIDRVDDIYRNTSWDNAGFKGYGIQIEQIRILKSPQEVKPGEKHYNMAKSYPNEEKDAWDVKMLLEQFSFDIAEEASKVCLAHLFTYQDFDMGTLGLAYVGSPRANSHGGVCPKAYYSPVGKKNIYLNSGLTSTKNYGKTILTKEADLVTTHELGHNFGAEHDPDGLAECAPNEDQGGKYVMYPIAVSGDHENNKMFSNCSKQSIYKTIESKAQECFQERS
Kind of experiment: TACE FRET assay using TACE cat. Type of experiment: biochemical.
Conditions: not given
In a few lines:
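Enzyme (1 ug/ml) pretreated with inhibitor for 10 min at room temperature in 50 mM Tris-HCl pH 7.4, 25 mM NaCl, 4% glycerol, 0.005% Brij 35, then started with FRET peptide Abz-[sequence]-Dpa (2 mM stock). Initial rate taken from fluorescence slope; IC50 fitted with floated Hill slope and background.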
For the compound `CC#CCOc1ccc(S(=O)(=O)N[C@@H](Cc2c(C)n(Cc3ccc(C#N)cc3)c3ccc(OC)cc23)C(=O)O)cc1` [Example 205, N-{[4-(but-2-ynyloxy)phenyl]sulfonyl}-1-(4-cyanobenzyl)-5-methoxy-2-methyltryptophan], the IC50 (as a rule, the midpoint of a concentration-inhibition curve) is 470 nM.

For `CC#CCOc1ccc(S(=O)(=O)N[C@@H](Cc2c(C)n(Cc3ccccc3F)c3ccc(OC)cc23)C(=O)O)cc1` [Example 197, N-{[4-(but-2-ynyloxy)phenyl]sulfonyl}-1-(2-fluorobenzyl)-5-methoxy-2-methyltryptophan], the IC50 was found to be 300 nM.

Regarding `CC#CCOc1ccc(S(=O)(=O)N[C@@H](Cc2cn(CC3CCCCC3)c3ccc(OC)cc23)C(=O)O)cc1` [Example 70, N-{[4-(but-2-ynyloxy)phenyl]sulfonyl}-1-(cyclohexylmethyl)-5-methoxytryptophan], the 50% inhibitory concentration (IC50) amounted to 1870 nM.

Still in this experiment, the particulars now being: TACE FRET assay, catalytic domain of recombinant TACE; read-out: TACE IC50.
On to `CC#CCOc1ccc(S(=O)(=O)N[C@H](Cc2cn(CCCCC)c3ccccc23)C(=O)O)cc1` [Example 22, N-{[4-(but-2-ynyloxy)phenyl]sulfonyl}-1-pentyl-D-tryptophan], for which the IC50 amounted to 2310 nM.

Consider `CC#CCOc1ccc(S(=O)(=O)N[C@H](Cc2cn(Cc3cc(OC)cc(OC)c3)c3ccccc23)C(=O)O)cc1` [Example 36, N-{[4-(but-2-ynyloxy)phenyl]sulfonyl}-1-(3,5-dimethoxybenzyl)-D-tryptophan], for which the IC50 came to 980 nM.

On to `CC#CCOc1ccc(S(=O)(=O)N[C@H](Cc2cn(Cc3ccc(Cl)cc3)c3ccccc23)C(=O)O)cc1` [Example 42, N-{[4-(but-2-ynyloxy)phenyl]sulfonyl}-1-(4-chlorobenzyl)-D-tryptophan], for which the IC50 stood at 3450 nM.

The same experiment, now with this note: read-out: TACE Inhibition (%).
For `CC#CCOc1ccc(S(=O)(=O)N[C@@H](Cc2cn(Cc3ccccc3C)c3ccc(C(=O)O)cc23)C(=O)O)cc1` [Example 104, N-{[4-(but-2-ynyloxy)phenyl]sulfonyl}-5-carboxy-1-(2-methylbenzyl)tryptophan], the inhibition (commonly the relative decrease from the control value, in per cent) at 1 µM worked out at 5.79%.

For `CC#CCOc1ccc(S(=O)(=O)N[C@@H](Cc2cn(Cc3cccc(OC)c3)c3ccc(Cl)cc23)C(=O)O)cc1` [Example 75, N-{[4-(but-2-ynyloxy)phenyl]sulfonyl}-5-chloro-1-(3-methoxybenzyl)tryptophan], the inhibition at 1 µM came to 25%.

As for `CC#CCOc1ccc(S(=O)(=O)N[C@@H](Cc2cn(Cc3ccccc3C#N)c3ccc(C(=O)O)cc23)C(=O)O)cc1` [Example 121, N-{[4-(but-2-ynyloxy)phenyl]sulfonyl}-5-carboxy-1-(2-cyanobenzyl)tryptophan], the inhibition at 1 µM was 14.8%.

Take `CC#CCOc1ccc(S(=O)(=O)N[C@@H](Cc2c(C)n(Cc3cccc(C(F)(F)F)c3)c3ccccc23)C(=O)O)cc1` [Example 149, N-{[4-(but-2-ynyloxy)phenyl]sulfonyl}-2-methyl-1-[3-(trifluoromethyl)benzyl]tryptophan]: the inhibition at 1 µM stood at 50.5%.

Regarding `CC#CCOc1ccc(S(=O)(=O)N[C@@H](Cc2cn(Cc3ccc4c(c3)OCO4)c3ccc(C(=O)O)cc23)C(=O)O)cc1` [Example 124, 1-(1,3-benzodioxol-5-ylmethyl)-N-{[4-(but-2-ynyloxy)phenyl]sulfonyl}-5-carboxytryptophan], the inhibition at 1 µM was determined as 10.2%.

With `CC#CCOc1ccc(S(=O)(=O)N[C@@H](Cc2c(C)n(Cc3ccccc3C#N)c3ccccc23)C(=O)O)cc1` [Example 158, N-{[4-(but-2-ynyloxy)phenyl]sulfonyl}-1-(2-cyanobenzyl)-2-methyltryptophan], the inhibition at 1 µM stood at 72.1%.

Consider `CC#CCOc1ccc(S(=O)(=O)N[C@@H](Cc2c(C)n(Cc3cc(OC)cc(OC)c3)c3ccc(OC)cc23)C(=O)O)cc1` [Example 192, N-{[4-(but-2-ynyloxy)phenyl]sulfonyl}-1-(3,5-dimethoxybenzyl)-5-methoxy-2-methyltryptophan], for which the inhibition at 1 µM came out at 80%.

For the compound `CC#CCOc1ccc(S(=O)(=O)N[C@@H](Cc2cn(Cc3ccccc3C)c3ccc(Cl)cc23)C(=O)O)cc1` [Example 72, N-{[4-(but-2-ynyloxy)phenyl]sulfonyl}-5-chloro-1-(2-methylbenzyl)tryptophan], the inhibition at 1 µM stood at 27.5%.

Consider `CC#CCOc1ccc(S(=O)(=O)N[C@@H](Cc2c(C)n(Cc3ccc4c(c3)OCO4)c3ccc(Cl)cc23)C(=O)O)cc1` [Example 100, 1-(1,3-benzodioxol-5-ylmethyl)-N-{[4-(but-2-ynyloxy)phenyl]sulfonyl}-5-chloro-2-methyltryptophan], for which the inhibition at 1 µM stood at 55.6%.

Turning to `CC#CCOc1ccc(S(=O)(=O)N[C@@H](Cc2cn(Cc3cccc(C#N)c3)c3ccc(C(=O)O)cc23)C(=O)O)cc1` [Example 122, N-{[4-(but-2-ynyloxy)phenyl]sulfonyl}-5-carboxy-1-(3-cyanobenzyl)tryptophan], the inhibition at 1 µM was -0.34%.

As to `CC#CCOc1ccc(S(=O)(=O)N[C@@H](Cc2cn(Cc3ccccc3)c3ccc(OC)cc23)C(=O)O)cc1` [Example 48, 1-benzyl-N-{[4-(but-2-ynyloxy)phenyl]sulfonyl}-5-methoxytryptophan], the inhibition at 1 µM stood at 37.2%.

With `CC#CCOc1ccc(S(=O)(=O)N[C@@H](Cc2cn(Cc3cc(OC)cc(OC)c3)c3ccc(C(=O)O)cc23)C(=O)O)cc1` [Example 110, N-{[4-(but-2-ynyloxy)phenyl]sulfonyl}-5-carboxy-1-(3,5-dimethoxybenzyl)tryptophan], the inhibition at 1 µM worked out at 8.02%.

In the case of `CC#CCOc1ccc(S(=O)(=O)N[C@@H](Cc2cn(Cc3ccc(C(=O)O)cc3)c3ccc(C(=O)O)cc23)C(=O)O)cc1` [Example 126, N-{[4-(but-2-ynyloxy)phenyl]sulfonyl}-5-carboxy-1-(4-carboxybenzyl)tryptophan], the inhibition at 1 µM stood at 8.36%.

As for `CC#CCOc1ccc(S(=O)(=O)N[C@@H](Cc2cn(Cc3ccccc3C)c3ccc(OC)cc23)C(=O)O)cc1` [Example 49, N-{[4-(but-2-ynyloxy)phenyl]sulfonyl}-5-methoxy-1-(2-methylbenzyl)tryptophan], the inhibition at 1 µM was 38.9%.

For `CC#CCOc1ccc(S(=O)(=O)N[C@H](Cc2cn(Cc3ccc(O)cc3)c3ccccc23)C(=O)O)cc1` [Example 214, N-{[4-(but-2-ynyloxy)phenyl]sulfonyl}-1-(4-hydroxybenzyl)-D-tryptophan], the inhibition at 1 µM was determined as 8.77%.

Take `CC#CCOc1ccc(S(=O)(=O)N[C@@H](Cc2cn(Cc3ccc(C)cc3)c3ccc(C#N)cc23)C(=O)O)cc1` [Example 136, N-{[4-(but-2-ynyloxy)phenyl]sulfonyl}-5-cyano-1-(4-methylbenzyl)tryptophan]: the inhibition at 1 µM was 57.8%.

`CC#CCOc1ccc(S(=O)(=O)N[C@@H](Cc2cn(Cc3ccccc3)c3ccc(C#N)cc23)C(=O)O)cc1` [Example 135, 1-benzyl-N-{[4-(but-2-ynyloxy)phenyl]sulfonyl}-5-cyanotryptophan]: the inhibition at 1 µM worked out at 29.6%.

In the case of `CC#CCOc1ccc(S(=O)(=O)N[C@@H](Cc2cn(Cc3ccc(F)cc3)c3ccc(C#N)cc23)C(=O)O)cc1` [Example 141, N-{[4-(but-2-ynyloxy)phenyl]sulfonyl}-5-cyano-1-(4-fluorobenzyl)tryptophan], the inhibition at 1 µM amounted to 29.6%.

As to `CC#CCOc1ccc(S(=O)(=O)N[C@@H](Cc2cn(Cc3cccc(F)c3)c3ccc(OC)cc23)C(=O)O)cc1` [Example 59, N-{[4-(but-2-ynyloxy)phenyl]sulfonyl}-1-(3-fluorobenzyl)-5-methoxytryptophan], the inhibition at 1 µM was 44.4%.

As for `CC#CCOc1ccc(S(=O)(=O)N[C@@H](Cc2cn(Cc3cccc(F)c3)c3ccc(Cl)cc23)C(=O)O)cc1` [Example 80, N-{[4-(but-2-ynyloxy)phenyl]sulfonyl}-5-chloro-1-(3-fluorobenzyl)tryptophan], the inhibition at 1 µM stood at 27.1%.

Consider `CC#CCOc1ccc(S(=O)(=O)N[C@@H](Cc2cn(Cc3cccnc3)c3ccc(C(=O)O)cc23)C(=O)O)cc1` [Example 125, N-{[4-(but-2-ynyloxy)phenyl]sulfonyl}-5-carboxy-1-(pyridin-3-ylmethyl)tryptophan], for which the inhibition at 1 µM is 6.23%.

Take `CC#CCOc1ccc(S(=O)(=O)N[C@@H](Cc2c(C)n(Cc3ccccc3C)c3ccccc23)C(=O)O)cc1` [Example 145, N-{[4-(but-2-ynyloxy)phenyl]sulfonyl}-2-methyl-1-(2-methylbenzyl)tryptophan]: the inhibition at 1 µM was 49.5%.

For `CC#CCOc1ccc(S(=O)(=O)N[C@@H](Cc2c(C)n(Cc3ccccc3OC)c3ccc(OC)cc23)C(=O)O)cc1` [Example 189, N-{[4-(but-2-ynyloxy)phenyl]sulfonyl}-5-methoxy-1-(2-methoxybenzyl)-2-methyltryptophan], the inhibition at 1 µM stood at 75.6%.

On to `CC#CCOc1ccc(S(=O)(=O)N[C@@H](Cc2c(C)n(Cc3ccccc3C#N)c3ccc(OC)cc23)C(=O)O)cc1` [Example 203, N-{[4-(but-2-ynyloxy)phenyl]sulfonyl}-1-(2-cyanobenzyl)-5-methoxy-2-methyltryptophan], for which the inhibition at 1 µM turned out to be 56.8%.

For the compound `CC#CCOc1ccc(S(=O)(=O)N[C@@H](Cc2cn(Cc3ccc(C(F)(F)F)cc3)c3ccc(OC)cc23)C(=O)O)cc1` [Example 57, N-{[4-(but-2-ynyloxy)phenyl]sulfonyl}-5-methoxy-1-[4-(trifluoromethyl)benzyl]tryptophan], the inhibition at 1 µM was 32.1%.

As to `CC#CCOc1ccc(S(=O)(=O)N[C@@H](Cc2cn(Cc3ccc(C(C)C)cc3)c3ccc(OC)cc23)C(=O)O)cc1` [Example 63, N-{[4-(but-2-ynyloxy)phenyl]sulfonyl}-1-(4-isopropylbenzyl)-5-methoxytryptophan], the inhibition at 1 µM turned out to be 28.2%.

In the case of `CC#CCOc1ccc(S(=O)(=O)N[C@@H](Cc2c(C)n(Cc3ccc(F)cc3)c3ccccc23)C(=O)O)cc1` [Example 154, N-{[4-(but-2-ynyloxy)phenyl]sulfonyl}-1-(4-fluorobenzyl)-2-methyltryptophan], the inhibition at 1 µM came to 52.7%.
